Experiments:
Assay in all cases: KiNativ chemical proteomics profiling in HeLa and PC3 cell lysates
[1] = biological target: T1, selected panels of kinases in HeLa and PC3 cell lysates (Homo sapiens, UniProt Q15759); type: binding; conditions: 10 uM; proteome PC3; peptide QELNkTVWEVPQR; labeling site Other
T1 construct: endogenous in cells; host or cells: HeLa and PC3 cell lysates

[2] = biological target: T2, selected panels of kinases in HeLa and PC3 cell lysates (Homo sapiens, UniProt Q16512); type: binding; conditions: 10 uM; PKN1; peptide GHFGk[…]; proteome HEL; labeling site Lys1
T2 construct: endogenous in cells; host or cells: HeLa and PC3 cell lysates

[3] = biological target: T3, selected panels of kinases in HeLa and PC3 cell lysates (Homo sapiens, UniProt O75716); type: binding; conditions: 10 uM, peptide DLk[…], labeling site Lys2
T3 construct: endogenous in cells; host or cells: HeLa and PC3 cell lysates

[4] = biological target: T4, selected panels of kinases in HeLa and PC3 cell lysates (Homo sapiens, UniProt Q13164); type: binding
T4 construct: endogenous in cells; host or cells: HeLa and PC3 cell lysates

[5] = biological target: T5, selected panels of kinases in HeLa and PC3 cell lysates (Homo sapiens, UniProt P21127); type: binding; conditions: 10 uM; PITSLRE; peptide DLk[…]; proteome PC3; labeling site Lys2
T5 construct: endogenous in cells; host or cells: HeLa and PC3 cell lysates

[6] = biological target: T6, selected panels of kinases in HeLa and PC3 cell lysates (Homo sapiens, UniProt Q9P2K8); type: binding; conditions: 10 uM
T6 construct: endogenous in cells; host or cells: HeLa and PC3 cell lysates

[7] = biological target: T7, selected panels of kinases in HeLa and PC3 cell lysates (Homo sapiens, UniProt P15735); type: binding; conditions: 10 uM; PHKg2; peptide ATGHEFAVkIMEVTAER; proteome PC3; labeling site Lys1
T7 construct: endogenous in cells; host or cells: HeLa and PC3 cell lysates

[8] = tested on: selected panels of kinases in HeLa and PC3 cell lysates; type: binding, human; conditions: 10 uM; for % Inhibition PI4KA,PI4KAP2: peptide SGTPMQSAAkAPYLAK, labeling site ATP; for % Inhibiton, MAP3K2,MAP3K3: peptide DIkGANILR; for % Inhibiton, IKKe,TBK1: peptide DIkPGNIMR; for % Inhibiton, JNK1,JNK2,JNK3: peptide DLkPSNIVVK; for % Inhibiton, MAP2K1,MAP2K2: peptide DVkPSNILVNSR
[9] = biological target: T8, selected panels of kinases in HeLa and PC3 cell lysates (Homo sapiens, UniProt Q92918); type: binding; conditions: 10 uM; proteome HEL; peptide […]kMVK; labeling site Lys1
T8 construct: endogenous in cells; host or cells: HeLa and PC3 cell lysates

[10] = biological target: T9, selected panels of kinases in HeLa and PC3 cell lysates (Homo sapiens, UniProt Q9Y4K4); type: binding; conditions: 10 uM; proteome PC3; peptide […]kIIK; labeling site Lys1
T9 construct: endogenous in cells; host or cells: HeLa and PC3 cell lysates

[11] = biological target: T10, selected panels of kinases in HeLa and PC3 cell lysates (Homo sapiens, UniProt Q14164); type: binding; conditions: 10 uM; proteome HEL; peptide SGELVAVk[…]; labeling site Lys1
T10 construct: endogenous in cells; host or cells: HeLa and PC3 cell lysates

[12] = biological target: T11, selected panels of kinases in HeLa and PC3 cell lysates (Homo sapiens, UniProt O75385); type: binding; conditions: 10 uM; ULK1; peptide DLk[…]; proteome HEL; labeling site Lys2
T11 construct: endogenous in cells; host or cells: HeLa and PC3 cell lysates

[13] = biological target: T12, selected panels of kinases in HeLa and PC3 cell lysates (Homo sapiens, UniProt O00418); type: binding; conditions: 10 uM, peptide YIkYNSNSGFVR, labeling site Protein Kinase Domain
T12 construct: endogenous in cells; host or cells: HeLa and PC3 cell lysates

[14] = biological target: T13, selected panels of kinases in HeLa and PC3 cell lysates (Homo sapiens, UniProt Q13523); type: binding; conditions: 10 uM; PRP4; peptide […]k[…]; proteome PC3; labeling site Lys2
T13 construct: endogenous in cells; host or cells: HeLa and PC3 cell lysates

[15] = biological target: T14, selected panels of kinases in HeLa and PC3 cell lysates (Homo sapiens, UniProt P52564); type: binding; conditions: 10 uM
T14 construct: endogenous in cells; host or cells: HeLa and PC3 cell lysates
T14 sequence (P52564 1-334): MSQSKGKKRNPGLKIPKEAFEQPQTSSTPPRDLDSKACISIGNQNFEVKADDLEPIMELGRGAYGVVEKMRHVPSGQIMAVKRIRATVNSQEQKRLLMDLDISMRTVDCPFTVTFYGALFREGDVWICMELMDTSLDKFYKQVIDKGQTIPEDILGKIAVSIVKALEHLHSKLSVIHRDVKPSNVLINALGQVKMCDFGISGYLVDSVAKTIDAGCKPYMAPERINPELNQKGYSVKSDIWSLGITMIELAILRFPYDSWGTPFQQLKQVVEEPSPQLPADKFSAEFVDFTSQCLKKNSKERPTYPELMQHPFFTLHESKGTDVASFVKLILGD

[16] = biological target: T15, selected panels of kinases in HeLa and PC3 cell lysates (Homo sapiens, UniProt Q15131); type: binding; conditions: 10 uM; proteome PC3; peptide DLkVSNLLMTDK; labeling site Lys2
T15 construct: endogenous in cells; host or cells: HeLa and PC3 cell lysates

[17] = proteome PC3, peptide DLk[…], labeling site Lys2
[18] = peptide DIk[…], proteome HEL, labeling site Lys2
[19] = peptide DIk[…], proteome PC3, labeling site Lys2
[20] = proteome HEL, labeling site Lys2
[21] = proteome HEL, peptide DLk[…], labeling site Lys2
[22] = proteome HEL, peptide DVk[…], labeling site Lys2
[23] = proteome PC3, labeling site Lys2
[24] = proteome PC3, peptide DIk[…], labeling site Lys2
[25] = proteome PC3, peptide DVk[…], labeling site Lys2

T6 sequence (Q9P2K8 whole entry): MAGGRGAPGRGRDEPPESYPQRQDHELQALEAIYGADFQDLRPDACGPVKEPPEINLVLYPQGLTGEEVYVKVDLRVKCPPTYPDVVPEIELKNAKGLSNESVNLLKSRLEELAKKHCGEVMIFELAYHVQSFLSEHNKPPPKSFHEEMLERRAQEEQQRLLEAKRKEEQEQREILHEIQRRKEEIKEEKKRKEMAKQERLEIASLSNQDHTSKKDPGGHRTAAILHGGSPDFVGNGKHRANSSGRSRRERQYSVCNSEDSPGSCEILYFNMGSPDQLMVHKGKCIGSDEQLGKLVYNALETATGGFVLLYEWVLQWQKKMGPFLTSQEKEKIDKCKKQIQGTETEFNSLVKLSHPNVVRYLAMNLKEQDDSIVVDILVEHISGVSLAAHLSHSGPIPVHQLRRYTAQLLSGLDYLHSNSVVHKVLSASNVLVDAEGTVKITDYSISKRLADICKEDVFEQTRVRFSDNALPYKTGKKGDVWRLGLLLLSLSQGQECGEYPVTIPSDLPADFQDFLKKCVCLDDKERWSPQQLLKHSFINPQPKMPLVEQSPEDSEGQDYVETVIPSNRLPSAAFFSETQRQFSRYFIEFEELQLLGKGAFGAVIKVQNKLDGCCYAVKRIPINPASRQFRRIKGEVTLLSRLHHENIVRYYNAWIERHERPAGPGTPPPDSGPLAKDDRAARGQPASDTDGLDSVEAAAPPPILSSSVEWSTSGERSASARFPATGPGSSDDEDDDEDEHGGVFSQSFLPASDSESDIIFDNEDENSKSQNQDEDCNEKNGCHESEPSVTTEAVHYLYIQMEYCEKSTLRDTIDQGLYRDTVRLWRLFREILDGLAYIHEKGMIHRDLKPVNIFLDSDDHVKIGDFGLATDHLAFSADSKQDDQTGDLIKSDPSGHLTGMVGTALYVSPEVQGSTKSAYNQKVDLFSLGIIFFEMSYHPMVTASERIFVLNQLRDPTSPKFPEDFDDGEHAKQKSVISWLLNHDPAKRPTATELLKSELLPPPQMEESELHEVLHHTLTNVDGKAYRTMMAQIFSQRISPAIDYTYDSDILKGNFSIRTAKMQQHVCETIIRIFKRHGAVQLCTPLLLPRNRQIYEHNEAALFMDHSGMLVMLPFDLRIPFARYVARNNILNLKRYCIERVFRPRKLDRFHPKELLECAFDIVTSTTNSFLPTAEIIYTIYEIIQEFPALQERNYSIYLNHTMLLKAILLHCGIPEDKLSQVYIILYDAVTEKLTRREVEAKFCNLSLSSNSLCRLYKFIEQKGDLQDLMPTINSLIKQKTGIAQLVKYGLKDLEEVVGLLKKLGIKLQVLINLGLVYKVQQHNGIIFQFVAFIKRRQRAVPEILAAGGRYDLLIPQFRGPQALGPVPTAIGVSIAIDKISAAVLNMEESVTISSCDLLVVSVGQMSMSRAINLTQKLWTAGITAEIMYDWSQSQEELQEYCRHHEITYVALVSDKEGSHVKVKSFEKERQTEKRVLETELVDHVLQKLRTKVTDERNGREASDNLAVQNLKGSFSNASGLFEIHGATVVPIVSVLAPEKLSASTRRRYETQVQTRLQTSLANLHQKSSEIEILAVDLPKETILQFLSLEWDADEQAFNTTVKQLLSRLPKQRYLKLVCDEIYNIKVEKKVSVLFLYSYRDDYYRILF
T3 sequence (O75716 whole entry): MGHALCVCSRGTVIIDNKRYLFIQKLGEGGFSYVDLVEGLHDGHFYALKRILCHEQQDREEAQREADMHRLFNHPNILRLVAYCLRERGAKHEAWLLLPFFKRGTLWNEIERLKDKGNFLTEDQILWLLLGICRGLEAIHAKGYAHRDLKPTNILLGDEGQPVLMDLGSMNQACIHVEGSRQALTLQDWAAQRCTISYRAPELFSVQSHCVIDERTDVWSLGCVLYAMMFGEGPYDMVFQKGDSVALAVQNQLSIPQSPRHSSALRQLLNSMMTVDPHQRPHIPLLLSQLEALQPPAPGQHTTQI
T4 sequence (Q13164 whole entry): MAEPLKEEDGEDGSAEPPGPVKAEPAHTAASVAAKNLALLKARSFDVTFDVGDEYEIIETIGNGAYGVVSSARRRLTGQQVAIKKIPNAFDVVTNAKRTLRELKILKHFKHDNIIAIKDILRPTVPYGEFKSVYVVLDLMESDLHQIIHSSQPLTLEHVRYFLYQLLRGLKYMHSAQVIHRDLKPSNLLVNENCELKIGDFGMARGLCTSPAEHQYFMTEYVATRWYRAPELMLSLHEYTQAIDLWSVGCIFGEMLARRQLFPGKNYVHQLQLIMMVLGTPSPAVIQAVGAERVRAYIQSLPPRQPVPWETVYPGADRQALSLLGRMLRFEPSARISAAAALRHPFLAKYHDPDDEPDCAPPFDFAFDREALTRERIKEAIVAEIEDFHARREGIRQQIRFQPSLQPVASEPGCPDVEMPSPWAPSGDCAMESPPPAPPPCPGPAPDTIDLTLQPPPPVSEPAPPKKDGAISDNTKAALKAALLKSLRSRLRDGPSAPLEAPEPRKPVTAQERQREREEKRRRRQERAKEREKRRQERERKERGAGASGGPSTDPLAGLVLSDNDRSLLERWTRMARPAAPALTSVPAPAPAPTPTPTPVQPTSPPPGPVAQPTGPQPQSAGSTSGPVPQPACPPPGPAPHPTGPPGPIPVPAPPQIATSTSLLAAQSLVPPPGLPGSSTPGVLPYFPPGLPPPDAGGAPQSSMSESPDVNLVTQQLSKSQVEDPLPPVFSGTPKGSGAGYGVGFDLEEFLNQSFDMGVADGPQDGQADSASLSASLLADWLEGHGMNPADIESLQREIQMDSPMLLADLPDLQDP
T12 sequence (O00418 whole entry, the tested form may be a part): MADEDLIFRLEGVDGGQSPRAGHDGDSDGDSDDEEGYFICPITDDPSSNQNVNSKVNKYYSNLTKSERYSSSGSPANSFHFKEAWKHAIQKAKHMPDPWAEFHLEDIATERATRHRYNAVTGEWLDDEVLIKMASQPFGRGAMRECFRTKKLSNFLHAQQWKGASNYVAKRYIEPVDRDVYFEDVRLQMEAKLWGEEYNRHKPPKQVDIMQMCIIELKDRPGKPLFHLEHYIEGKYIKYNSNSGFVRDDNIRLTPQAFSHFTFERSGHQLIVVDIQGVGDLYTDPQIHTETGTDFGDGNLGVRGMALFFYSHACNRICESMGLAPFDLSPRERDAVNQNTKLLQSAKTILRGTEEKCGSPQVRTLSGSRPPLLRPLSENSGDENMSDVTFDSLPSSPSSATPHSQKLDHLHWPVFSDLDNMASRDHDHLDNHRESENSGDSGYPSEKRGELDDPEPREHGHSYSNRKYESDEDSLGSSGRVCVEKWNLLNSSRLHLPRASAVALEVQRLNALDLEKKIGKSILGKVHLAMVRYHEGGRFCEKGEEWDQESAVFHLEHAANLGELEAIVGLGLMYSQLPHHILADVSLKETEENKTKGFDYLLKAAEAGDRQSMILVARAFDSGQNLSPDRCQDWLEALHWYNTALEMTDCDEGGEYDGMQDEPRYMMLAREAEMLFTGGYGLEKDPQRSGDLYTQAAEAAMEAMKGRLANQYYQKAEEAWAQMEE
T15 sequence (Q15131 whole entry): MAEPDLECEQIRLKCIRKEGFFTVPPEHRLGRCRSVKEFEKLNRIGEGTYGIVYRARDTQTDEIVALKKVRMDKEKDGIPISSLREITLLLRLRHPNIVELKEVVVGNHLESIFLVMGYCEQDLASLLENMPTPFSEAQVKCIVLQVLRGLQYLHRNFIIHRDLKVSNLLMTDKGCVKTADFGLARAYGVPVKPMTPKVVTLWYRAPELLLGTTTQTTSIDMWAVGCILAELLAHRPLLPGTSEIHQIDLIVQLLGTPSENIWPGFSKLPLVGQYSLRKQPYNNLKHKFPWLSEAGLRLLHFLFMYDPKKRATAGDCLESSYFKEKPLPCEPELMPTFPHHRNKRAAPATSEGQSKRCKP
T2 sequence (Q16512 whole entry): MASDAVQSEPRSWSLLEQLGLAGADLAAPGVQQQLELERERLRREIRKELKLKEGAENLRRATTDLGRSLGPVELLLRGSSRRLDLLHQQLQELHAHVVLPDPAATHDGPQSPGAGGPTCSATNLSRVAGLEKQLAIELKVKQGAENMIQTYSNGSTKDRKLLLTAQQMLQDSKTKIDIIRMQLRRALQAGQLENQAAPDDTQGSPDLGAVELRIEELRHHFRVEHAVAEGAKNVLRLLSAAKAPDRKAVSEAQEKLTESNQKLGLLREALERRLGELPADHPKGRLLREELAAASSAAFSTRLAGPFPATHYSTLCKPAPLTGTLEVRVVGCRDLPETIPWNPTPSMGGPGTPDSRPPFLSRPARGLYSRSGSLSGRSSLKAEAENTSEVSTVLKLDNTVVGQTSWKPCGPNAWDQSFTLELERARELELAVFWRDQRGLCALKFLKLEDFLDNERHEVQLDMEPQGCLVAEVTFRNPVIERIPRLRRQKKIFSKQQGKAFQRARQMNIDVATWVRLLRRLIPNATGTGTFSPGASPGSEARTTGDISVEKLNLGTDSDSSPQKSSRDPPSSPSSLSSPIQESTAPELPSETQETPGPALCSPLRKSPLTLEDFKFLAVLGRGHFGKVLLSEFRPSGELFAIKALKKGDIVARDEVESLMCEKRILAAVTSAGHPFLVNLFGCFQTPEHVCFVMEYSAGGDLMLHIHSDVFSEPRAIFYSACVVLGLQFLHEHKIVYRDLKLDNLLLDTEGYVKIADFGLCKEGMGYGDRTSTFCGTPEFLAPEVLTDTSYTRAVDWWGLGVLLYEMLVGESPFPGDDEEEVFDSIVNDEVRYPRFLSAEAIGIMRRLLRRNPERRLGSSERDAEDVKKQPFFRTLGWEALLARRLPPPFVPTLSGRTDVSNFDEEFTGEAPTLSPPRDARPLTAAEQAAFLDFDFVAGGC

With `CCOc1cc(C(=O)N2CCC(N3CCN(C)CC3)CC2)ccc1Nc1ncc2c(n1)N(C1CCCC1)c1ccccc1C(=O)N2C` [Compound 26] the “% Inhibiton, p38b” value [1] was 14.6%, the “% Inhibition PKN1” value [2] was 15.3% and the “% Inhibiton, MPSK1” value ([3]; proteome HEL) was -9.4%. The “% Inhibiton, MPSK1” value ([3]; proteome PC3) was 5.8%, the “ERK5 target occupancy (KiNativ)” value ([4]; 10 μM, HeLa and PC3 cell lysates, only ERK5 exceeded this level) was “higher than 90%” and the “% Inhibiton, Erk5” value ([4]; 10 uM, proteome HEL, peptide DLk[…], labeling site Lys2) was 94.3%. The “% Inhibition PITSLRE” value [5] was 3.5%, the “% Inhibiton, GCN2” value ([6]; proteome HEL, peptide LDGCCYAVkR, labeling site Lys1) was -6.3% and the “% Inhibiton, GCN2” value [6, 17] was 1.6%. For the same compound, the “% Inhibiton, GCN2” value ([6]; proteome PC3, peptide LDGCCYAVkR, labeling site Lys1) was 6.4%, the “% Inhibition PHKg2” value [7] was -3.8% and the “% Inhibition PI4KA,PI4KAP2” value ([8]; proteome HEL) was -4.3%. The “% Inhibition PI4KA,PI4KAP2” value ([8]; proteome PC3) was -19.2%, the “% Inhibition PKCa,PKCb” value ([8]; PKCa,PKCb, peptide DLk[…], proteome PC3, labeling site Lys2) was -2.9% and the “% Inhibition PKD1,PKD2” value ([8]; PKD1,PKD2, peptide NIVHCDLk[…], proteome HEL, labeling site Lys2) was 16.4%. The “% Inhibition ROCK1,ROCK2” value ([8]; ROCK1,ROCK2, peptide DVkPDNMLLDK, proteome PC3, labeling site Lys2) was -4.8%, the “% Inhibition RSK1,RSK2 domain1” value ([8]; RSK1,RSK2 domain1, peptide DLk[…], proteome HEL, labeling site Lys2) was 13.4% and the “% Inhibition RSK1,RSK4 domain1” value ([8]; RSK1,RSK4 domain1, peptide VLGQGSFGkVFLVR, proteome HEL, labeling site ATP Loop) was 0.4%. For the same compound, the “% Inhibition SRPK1,SRPK2” value ([8]; SRPK1,SRPK2, peptide FVAMkVVK, proteome PC3, labeling site Lys1) was -3.7%, the “% Inhibition TAO1,TAO3” value [8, 18] was -15.8% and the “% Inhibition TAO1,TAO3” value [8, 19] was 1.7%. The “% Inhibition Wnk1,Wnk2,Wnk3” value ([8]; Wnk1,Wnk2,Wnk3, peptide DLk[…], proteome HEL, labeling site Lys2) was 1.8%, the “% Inhibition Wnk1,Wnk2,Wnk4” value ([8]; Wnk1,Wnk2,Wnk4, peptide IGDLGLATLkR, proteome PC3, labeling site Activation Loop) was -6.2% and the “% Inhibition ZC1/HGK,ZC2/TNIK,ZC3/MINK” value [8, 18] was -1.1%. For the same compound, the “% Inhibition ZC1/HGK,ZC2/TNIK,ZC3/MINK” value [8, 19] was -12.1%, the “% Inhibition p70S6K,p70S6Kb” value ([8]; p70S6K,p70S6Kb, peptide GGYGkVFQVR, proteome PC3, labeling site ATP Loop) was -1% and the “% Inhibiton, MAP3K2,MAP3K3” value [8, 20] was -4.4%. The “% Inhibiton, IKKe,TBK1” value [8, 20] was -55%, the “% Inhibiton, NEK6,NEK7” value ([8]; proteome HEL, peptide DIk[…], labeling site Lys2) was 6.4% and the “% Inhibiton, JNK1,JNK2,JNK3” value [8, 20] was 14%. The “% Inhibiton, AMPKa1,AMPKa2” value [8, 21] was -22.8%, the “% Inhibiton, MARK2,MARK3” value [8, 21] was -16.8% and the “% Inhibiton, MAST2,MAST4” value [8, 21] was -23.7%. For the same compound, the “% Inhibiton, p38d,p38g” value [8, 21] was -11.7%, the “% Inhibiton, MAP2K1,MAP2K2” value [8, 20] was 17.5% and the “% Inhibiton, MYO3A,MYO3B” value [8, 22] was 11.5%. For the same compound, the “% Inhibiton, BMX,BTK” value ([8]; proteome HEL, peptide GQYDVAIkMIK, labeling site Lys1) was -22.5%, the “% Inhibiton, MAP3K5,MAP3K6,MAP3K7” value ([8]; proteome HEL, peptide IAIkEIPERDSR, labeling site Lys1) was 2% and the “% Inhibiton, KSR1,KSR2” value ([8]; proteome HEL, peptide SkNVFYDNGK, labeling site Protein Kinase Domain) was 12.3%. The “% Inhibiton, AMPKa1,AMPKa2” value ([8]; proteome HEL, peptide VAVkILNR, labeling site Lys1) was 6%, the “% Inhibiton, MSK1,MSK2 domain1” value ([8]; proteome HEL, peptide VLGTGAYGkVFLVR, labeling site ATP Loop) was 7.4% and the “% Inhibiton, ABL,ARG” value ([8]; proteome HEL, peptide […]kFPIK, labeling site Activation Loop) was -6.4%. The “% Inhibiton, MAP3K2,MAP3K3” value [8, 23] was 5.5%, the “% Inhibiton, IKKe,TBK1” value [8, 23] was -4.6% and the “% Inhibiton, MST1,MST2” value [8, 24] was -5.4%. For the same compound, the “% Inhibiton, MST4,YSK1” value [8, 24] was 0.5%, the “% Inhibiton, NEK6,NEK7” value [8, 24] was -4.6% and the “% Inhibiton, CaMK2a,CaMK2b,CaMK2d,CaMK2g” value ([8]; proteome PC3, peptide DLkPENLLLASK, labeling site Lys2) was -3.7%. The “% Inhibiton, JNK1,JNK2,JNK3” value [8, 23] was 12.2%, the “% Inhibiton, AMPKa1,AMPKa2” value [8, 17] was 12.1% and the “% Inhibiton, CDK11,CDK8” value [8, 17] was 7.9%. The “% Inhibiton, MARK2,MARK3” value [8, 17] was 3.7%, the “% Inhibiton, p38d,p38g” value [8, 17] was 8.3% and the “% Inhibiton, MAP2K1,MAP2K2” value [8, 23] was 7.9%. For the same compound, the “% Inhibiton, CK1d,CK1e” value [8, 25] was 13%, the “% Inhibiton, MARK3,MARK4” value ([8]; proteome PC3, peptide EVAIkIIDK, labeling site Lys1) was 0.6% and the “% Inhibiton, FYN,SRC,YES” value ([8]; proteome PC3, peptide QGAk[…], labeling site Activation Loop) was 5.5%. The “% Inhibiton, AMPKa1,AMPKa2” value ([8]; proteome PC3, peptide VAVkILNR, labeling site Lys1) was 6.9%, the “% Inhibiton, HPK1” value [9] was -10.9% and the “% Inhibiton, KHS1” value [10] was -7.1%. The “% Inhibiton, IKKe” value [11] was 8.6%, the “% Inhibition ULK1” value [12] was -5.1% and the “% Inhibiton, eEF2K” value ([13]; proteome HEL) was 1.2%. For the same compound, the “% Inhibiton, eEF2K” value ([13]; proteome PC3) was 1.9%, the “% Inhibition PRP4” value [14] was 5.5% and the “% Inhibiton, MAP2K6” value [15, 22] was -4.3%. For the same compound, the “% Inhibiton, MAP2K6” value [15, 25] was -9.9%, the “% Inhibiton, MAP2K6” value ([15]; proteome PC3, peptide […]kR, labeling site Lys1) was -2.3% and the “% Inhibiton, CDK10” value [16] was 10.4%.

From PMC3914206
